Measurements as given in patent US11724992B2 (Novartis AG, priority 2017, dated 2023).

What follows are compounds tested on IL-1β production in PMA-differentiated THP-1 cells (assay: IL-1β production in PMA-differentiated THP-1 cells stimulated with gramicidin (hTHP-1 assay, 2% fetal bovine serum; Procedures 1-3)). Conditions: hTHP-1 assay containing 2% fetal bovine serum; class symbols; read-out: hTHP-1 IC50 (Average IC50 of compounds in hTHP-1 assay).
Assay type: cell-based, human
In short: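 PMA-differentiated (20 ng/ml, 16-18 h) THP-1 cells in RPMI with 2% FBS, 50,000 cells/well, preincubated 1 h with compound (final 100–0.0017 μM, 0.37% DMSO), then stimulated with 5 μM gramicidin for 2 h. Supernatant IL-1β measured by HTRF.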

SMILES	IC50 [nM]
CC(C)(O)c1cc(S(N)(=O)=NC(=O)Nc2c3c(cc4c2CCC4)CCC3)nn1-c1ccccc1 (single isomer, unassigned) [Example 308, (S) or (R)-N′-((1,2,3,5,6,7-hexahydro-s-indacen-4-yl)carbamoyl)-5-(2-hydroxypropan-2-yl)-1-phenyl-1H-pyrazole-3-sulfonimidamide]	1000 to 5000
CC(C)(O)c1cc(S(N)(=O)=NC(=O)Nc2c3c(cc4c2CCC4)CCC3)nn1-c1ccccc1 (single isomer, unassigned) [Example 309, (R) or (S)-N′-((1,2,3,5,6,7-hexahydro-s-indacen-4-yl)carbamoyl)-5-(2-hydroxypropan-2-yl)-1-phenyl-1H-pyrazole-3-sulfonimidamide]	40 to 200
CC(C)(O)c1csc(S(N)(=O)=NC(=O)Nc2c3c(c(F)c4c2CCC4)CCC3)n1 (single isomer, unassigned) [Example 310, (R) or (S)-N′-((8-fluoro-1,2,3,5,6,7-hexahydro-s-indacen-4-yl)carbamoyl)-4-(2-hydroxypropan-2-yl)thiazole-2-sulfonimidamide]	8 to 40
CC(C)(O)c1csc(S(N)(=O)=NC(=O)Nc2c3c(c(F)c4c2CCC4)CCC3)n1 (single isomer, unassigned) [Example 311, (S) or (R)-N′-((8-fluoro-1,2,3,5,6,7-hexahydro-s-indacen-4-yl)carbamoyl)-4-(2-hydroxypropan-2-yl)thiazole-2-sulfonimidamide]	200 to 1000
CNCc1ccc(S(N)(=O)=NC(=O)Nc2c3c(cc4c2CCC4)CCC3)cc1 (single isomer, unassigned) [Example 314, (S) or (R)-N′-((1,2,3,5,6,7-hexahydro-s-indacen-4-yl)carbamoyl)-4-((methylamino)methyl)benzenesulfonimidamide]	200 to 1000
CNCc1ccc(S(N)(=O)=NC(=O)Nc2c3c(cc4c2CCC4)CCC3)cc1 (single isomer, unassigned) [Example 315, (R) or (S)-N′-((1,2,3,5,6,7-hexahydro-s-indacen-4-yl)carbamoyl)-4-((methylamino)methyl)benzenesulfonimidamide]	5000 to 30000
CC(C)c1cc(C#N)c(F)c(C(C)C)c1NC(=O)N=S(N)(=O)c1cnc(C(C)(O)CO)s1 (single isomer, unassigned) [Example 316, Two isomers of (R,R) or (R,S) or (S,S) or (S,R)-N′-((4-cyano-3-fluoro-2,6-diisopropylphenyl)carbamoyl)-2-(1,2-dihydroxypropan-2-yl)thiazole-5-sulfonimidamide]	200 to 1000
CC(C)c1cc(C#N)c(F)c(C(C)C)c1NC(=O)N=S(N)(=O)c1cnc(C(C)(O)CO)s1 (single isomer, unassigned) [Example 317, (R,R) or (R,S) or (S,S) or (S,R)-N-((4-cyano-3-fluoro-2,6-diisopropylphenyl)carbamoyl)-2-(1,2-dihydroxypropan-2-yl)thiazole-5-sulfonimidamide]	1000 to 5000
CC(C)c1cc(C#N)c(F)c(C(C)C)c1NC(=O)N=S(N)(=O)c1cnc(C(C)(O)CO)s1 (single isomer, unassigned) [Example 318, (S,S) or (S,R) or (R,R) or (R,S)-N-((4-cyano-3-fluoro-2,6-diisopropylphenyl)carbamoyl)-2-(1,2-dihydroxypropan-2-yl)thiazole-5-sulfonimidamide]	200 to 1000
CC(C)(O)c1ccc(S(N)(=O)=NC(=O)Nc2c3c(cc4c2CCC4)CCC3)cn1 (single isomer, unassigned) [Example 319, (S) or (R)-N′-((1,2,3,5,6,7-hexahydro-s-indacen-4-yl)carbamoyl)-6-(2-hydroxypropan-2-yl)pyridine-3-sulfonimidamide]	1000 to 5000
CC(C)(O)c1ccc(S(N)(=O)=NC(=O)Nc2c3c(cc4c2CCC4)CCC3)cn1 (single isomer, unassigned) [Example 320, (R) or (S)-N′-((1,2,3,5,6,7-hexahydro-s-indacen-4-yl)carbamoyl)-6-(2-hydroxypropan-2-yl)pyridine-3-sulfonimidamide]	40 to 200
CC1CCc2c1cc1c(c2NC(=O)N=S(N)(=O)c2cnc(C(C)(C)O)s2)CCC1 (single isomer, unassigned) [Example 321, (S,S) or (S,R)-2-(2-hydroxypropan-2-yl)-N′-((1-methyl-1,2,3,5,6,7-hexahydro-s-indacen-4-yl)carbamoyl)thiazole-5-sulfonimidamide (from Example 291)]	1000 to 5000
CC1CCc2c1cc1c(c2NC(=O)N=S(N)(=O)c2cnc(C(C)(C)O)s2)CCC1 (single isomer, unassigned) [Example 322, (S,R) or (S,S)-2-(2-hydroxypropan-2-yl)-N′-((1-methyl-1,2,3,5,6,7-hexahydro-s-indacen-4-yl)carbamoyl)thiazole-5-sulfonimidamide (from Example 291)]	200 to 1000
CC1CCc2c1cc1c(c2NC(=O)N=S(N)(=O)c2cnc(C(C)(C)O)s2)CCC1 (single isomer, unassigned) [Example 323, (R,R) or (R,S)-2-(2-hydroxypropan-2-yl)-N′-((1-methyl-1,2,3,5,6,7-hexahydro-s-indacen-4-yl)carbamoyl)thiazole-5-sulfonimidamide (from Example 291)]	40 to 200
CC1CCc2c1cc1c(c2NC(=O)N=S(N)(=O)c2cnc(C(C)(C)O)s2)CCC1 (single isomer, unassigned) [Example 324, (R,S) or (R,R)-2-(2-hydroxypropan-2-yl)-N′-((1-methyl-1,2,3,5,6,7-hexahydro-s-indacen-4-yl)carbamoyl)thiazole-5-sulfonimidamide (from Example 291)]	8 to 40
CC1CCc2cc3c(c(NC(=O)N=S(N)(=O)c4cnc(C(C)(C)O)s4)c21)CCC3 (single isomer, unassigned) [Example 331, (S,S) or (S,R)-2-(2-hydroxypropan-2-yl)-N′-((3-methyl-1,2,3,5,6,7-hexahydro-s-indacen-4-yl)carbamoyl)thiazole-5-sulfonimidamide]	5000 to 30000
CC1CCc2cc3c(c(NC(=O)N=S(N)(=O)c4cnc(C(C)(C)O)s4)c21)CCC3 (single isomer, unassigned) [Example 332, (R,R) or (R,S)-2-(2-hydroxypropan-2-yl)-N′-((3-methyl-1,2,3,5,6,7-hexahydro-s-indacen-4-yl)carbamoyl)thiazole-5-sulfonimidamide]	200 to 1000
CC1CCc2cc3c(c(NC(=O)N=S(N)(=O)c4cnc(C(C)(C)O)s4)c21)CCC3 (single isomer, unassigned) [Example 333, (S,R) or (S,S)-2-(2-hydroxypropan-2-yl)-N′-((3-methyl-1,2,3,5,6,7-hexahydro-s-indacen-4-yl)carbamoyl)thiazole-5-sulfonimidamide]	1000 to 5000
CC1CCc2cc3c(c(NC(=O)N=S(N)(=O)c4cnc(C(C)(C)O)s4)c21)CCC3 (single isomer, unassigned) [Example 334, (R,S) or (R,R)-2-(2-hydroxypropan-2-yl)-N′-((3-methyl-1,2,3,5,6,7-hexahydro-s-indacen-4-yl)carbamoyl)thiazole-5-sulfonimidamide]	8 to 40
CC(C)(O)c1ncc(S(N)(=O)=NC(=O)Nc2c3c(cc4c2CCC4=O)CCC3)s1 (single isomer, unassigned) [Example 335, (S) or (R)-2-(2-Hydroxypropan-2-yl)-N′-((1-oxo-1,2,3,5,6,7-hexahydro-s-indacen-4-yl)carbamoyl)thiazole-5-sulfonimidamide from Example 293]	1000 to 5000
CC(C)(O)c1ncc(S(N)(=O)=NC(=O)Nc2c3c(cc4c2CCC4=O)CCC3)s1 (single isomer, unassigned) [Example 336, (R) or (S)-2-(2-Hydroxypropan-2-yl)-N′-((1-oxo-1,2,3,5,6,7-hexahydro-s-indacen-4-yl)carbamoyl)thiazole-5-sulfonimidamide from Example 293]	200 to 1000
CC(C)(O)c1csc(S(N)(=O)=NC(=O)Nc2c3c(cc4c2CC4)CCC3)n1 (single isomer, unassigned) [Example 341, (R) or (S)-4-(2-hydroxypropan-2-yl)-N′-((2,4,5,6-tetrahydro-1H-cyclobuta[f]inden-3-yl)carbamoyl)thiazole-2-sulfonimidamide]	< 8
CC(C)(O)c1csc(S(N)(=O)=NC(=O)Nc2c3c(cc4c2CC4)CCC3)n1 (single isomer, unassigned) [Example 342, (R) or (S)-4-(2-hydroxypropan-2-yl)-N′-((2,4,5,6-tetrahydro-1H-cyclobuta[f]inden-3-yl)carbamoyl)thiazole-2-sulfonimidamide]	200 to 1000
CC(C)(O)c1ncc(S(N)(=O)=NC(=O)Nc2c3c(cc4c2OCC4)CCC3)s1 (single isomer, unassigned) [Example 343, (R) or (S)-2-(2-hydroxypropan-2-yl)-N′-((3,5,6,7-tetrahydro-2H-indeno[5,6-b]furan-8-yl)carbamoyl)thiazole-5-sulfonimidamide]	40 to 200
CC(C)(O)c1ncc(S(N)(=O)=NC(=O)Nc2c3c(cc4c2OCC4)CCC3)s1 (single isomer, unassigned) [Example 344, (R) or (S)-2-(2-hydroxypropan-2-yl)-N′-((3,5,6,7-tetrahydro-2H-indeno[5,6-b]furan-8-yl)carbamoyl)thiazole-5-sulfonimidamide]	1000 to 5000
